Test results taken from ChEMBL document CHEMBL1201862, “PubChem BioAssay data set” (2004).
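Interpolation was linear, between the two tested concentrations surrounding the appropriate level; five concentrations were tested over 48 hours in 96-well plates. GI50: concentration for 50% inhibition of growth.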 Active and inactive are the calls of the source. Rule as the data show it: active = GI50 up to about 1.1 µM and inactive = higher.

Experiments:
Assay in all cases: DTP human tumour cell line panel, 48 h
786-0 = system: 786-0
A498 = system: A498
A549 = system: A549
CAKI-1 = system: CAKI-1
EKVX = system: EKVX
HCT-15 = system: HCT-15
HT-29 = system: HT-29
KM12 = system: KM12
M14 = system: M14
MDA-MB-435 = system: MDA-MB-435
NCI-H522 = system: NCI-H522
OVCAR-5 = system: OVCAR-5
SK-MEL-5 = system: SK-MEL-5
SK-OV-3 = system: SK-OV-3
SR = system: SR
TK-10 = system: TK-10
UACC-257 = system: UACC-257
Malme-3M = system: Malme-3M
SNB-19 = system: SNB-19

| Compound | GI50 (786-0) | GI50 (A498) | GI50 (A549) | GI50 (CAKI-1) | GI50 (EKVX) | GI50 (HCT-15) | GI50 (HT-29) | GI50 (KM12) | GI50 (M14) | GI50 (MDA-MB-435) | GI50 (NCI-H522) | GI50 (OVCAR-5) | GI50 (SK-MEL-5) | GI50 (SK-OV-3) | GI50 (SR) | GI50 (TK-10) | GI50 (UACC-257) | GI50 (Malme-3M) | GI50 (SNB-19) |
| --- | --- | --- | --- | --- | --- | --- | --- | --- | --- | --- | --- | --- | --- | --- | --- | --- | --- | --- | --- |
| CC(C)(C)c1cc(-c2cc(C(C)(C)C)n(-c3ccccc3)n2)nn1-c1ccccc1 | > 100 µM (inactive) | > 100 µM (inactive) | > 100 µM (inactive) | > 100 µM (inactive) | > 100 µM (inactive) | > 100 µM | 68.9 µM (inactive) | 84.5 µM (inactive) | > 100 µM (inactive) | 49.8 µM (inactive) | > 100 µM (inactive) | > 100 µM (inactive) | > 100 µM (inactive) | > 100 µM (inactive) | > 100 µM (inactive) | > 100 µM (inactive) | > 100 µM (inactive) | – | – |
| Nn1c(S)nnc1-c1ccccc1Nc1ccccc1-c1nnc(S)n1N | > 50 µM (inactive) | – | – | – | > 50 µM (inactive) | > 50 µM | > 50 µM (inactive) | > 50 µM (inactive) | > 50 µM (inactive) | > 50 µM (inactive) | > 50 µM (inactive) | > 50 µM (inactive) | > 50 µM (inactive) | – | > 50 µM (inactive) | > 50 µM (inactive) | > 50 µM (inactive) | > 50 µM (inactive) | > 50 µM (inactive) |
| O=C1c2c(O)cc(O)cc2C(C2OC(CO)C(O)C(O)C2O)c2cc(CO)cc(O)c21 (configuration not stated) | > 100 µM (inactive) | > 100 µM (inactive) | > 100 µM (inactive) | – | > 100 µM (inactive) | > 100 µM | > 100 µM (inactive) | – | > 100 µM (inactive) | > 100 µM (inactive) | – | > 100 µM (inactive) | > 100 µM (inactive) | > 100 µM (inactive) | > 100 µM (inactive) | > 100 µM (inactive) | > 100 µM (inactive) | 55.7 µM (inactive) | > 100 µM (inactive) |
| N#C/C(=C\c1ccccc1Br)C(=O)c1ccccc1 | 15.8 µM (inactive) | > 100 µM (inactive) | > 40.7 µM (inactive) | > 71.8 µM (inactive) | > 100 µM (inactive) | 8.34 µM | > 57.7 µM (inactive) | > 54.3 µM (inactive) | > 34.8 µM (inactive) | – | 58.2 µM (inactive) | > 61.7 µM (inactive) | 16.5 µM (inactive) | > 100 µM (inactive) | 13.3 µM (inactive) | > 63.4 µM (inactive) | > 60 µM (inactive) | > 53.1 µM (inactive) | 20.4 µM (inactive) |
| CCC(=O)C(C)C(=O)C(=O)C(=O)OC (configuration not stated) | > 100 µM (inactive) | > 100 µM (inactive) | > 100 µM (inactive) | > 100 µM (inactive) | > 100 µM (inactive) | > 55.8 µM | 97.1 µM (inactive) | > 100 µM (inactive) | > 100 µM (inactive) | – | > 100 µM (inactive) | > 100 µM (inactive) | > 100 µM (inactive) | > 100 µM (inactive) | > 100 µM (inactive) | > 100 µM (inactive) | > 94.6 µM (inactive) | > 100 µM (inactive) | > 100 µM (inactive) |
| CCCOc1ccc(/C(Cl)=C(\C=O)c2ccc(OC)c(OC)c2)cc1OCCC | 20.8 µM (inactive) | 12.3 µM (inactive) | 5.43 µM (inactive) | 75.3 µM (inactive) | 10.9 µM (inactive) | 5.47 µM | 5.2 µM (inactive) | 8.61 µM (inactive) | 12.7 µM (inactive) | – | 2 µM (inactive) | 39.3 µM (inactive) | 10 µM (inactive) | 30.1 µM (inactive) | 2.52 µM (inactive) | 28.1 µM (inactive) | 11 µM (inactive) | 0.804 µM (active) | 23.1 µM (inactive) |
